Results reported in ChEMBL document CHEMBL3414441, “Development of multifunctional, heterodimeric isoindoline-1,3-dione derivatives as cholinesterase and β-amyloid aggregation inhibitors with neuroprotective properties” (Eur J Med Chem, 2015).
The source made the active and inactive calls. The calls are words filed in the database; no cut-off is given here.

Experiments:
Acetylcholinesterase [1] = target: T1, Acetylcholinesterase (Homo sapiens, UniProt P22303)
Description: Inhibition of human recombinant AChE after 5 mins by Ellman's method

Acetylcholinesterase [2] = target: Acetylcholinesterase (Electrophorus electricus, UniProt O42275)
Chain of Acetylcholinesterase (Electrophorus electricus, UniProt O42275) (O42275 whole entry): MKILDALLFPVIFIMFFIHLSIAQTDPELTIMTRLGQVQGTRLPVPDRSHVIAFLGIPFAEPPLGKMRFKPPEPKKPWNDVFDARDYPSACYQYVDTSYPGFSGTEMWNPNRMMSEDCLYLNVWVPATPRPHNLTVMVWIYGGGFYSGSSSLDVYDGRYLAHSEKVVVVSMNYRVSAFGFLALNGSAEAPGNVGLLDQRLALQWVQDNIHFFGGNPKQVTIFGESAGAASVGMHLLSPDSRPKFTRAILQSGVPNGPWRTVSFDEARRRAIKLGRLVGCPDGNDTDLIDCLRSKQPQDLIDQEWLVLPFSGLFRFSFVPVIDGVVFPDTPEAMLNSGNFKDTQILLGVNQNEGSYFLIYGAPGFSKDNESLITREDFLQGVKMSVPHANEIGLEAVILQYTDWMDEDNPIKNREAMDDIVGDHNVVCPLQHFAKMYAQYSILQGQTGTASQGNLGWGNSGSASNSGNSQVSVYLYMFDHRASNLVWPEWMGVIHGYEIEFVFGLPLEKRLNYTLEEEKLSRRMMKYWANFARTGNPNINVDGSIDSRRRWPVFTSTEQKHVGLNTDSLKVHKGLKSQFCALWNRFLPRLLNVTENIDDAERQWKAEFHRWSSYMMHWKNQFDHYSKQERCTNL
Description: Inhibition of Electrophorus electricus AChE after 5 mins by Ellman's method

Cholinesterase = Cholinesterase (Equus caballus, UniProt P81908)
Chain of Cholinesterase (P81908 whole entry): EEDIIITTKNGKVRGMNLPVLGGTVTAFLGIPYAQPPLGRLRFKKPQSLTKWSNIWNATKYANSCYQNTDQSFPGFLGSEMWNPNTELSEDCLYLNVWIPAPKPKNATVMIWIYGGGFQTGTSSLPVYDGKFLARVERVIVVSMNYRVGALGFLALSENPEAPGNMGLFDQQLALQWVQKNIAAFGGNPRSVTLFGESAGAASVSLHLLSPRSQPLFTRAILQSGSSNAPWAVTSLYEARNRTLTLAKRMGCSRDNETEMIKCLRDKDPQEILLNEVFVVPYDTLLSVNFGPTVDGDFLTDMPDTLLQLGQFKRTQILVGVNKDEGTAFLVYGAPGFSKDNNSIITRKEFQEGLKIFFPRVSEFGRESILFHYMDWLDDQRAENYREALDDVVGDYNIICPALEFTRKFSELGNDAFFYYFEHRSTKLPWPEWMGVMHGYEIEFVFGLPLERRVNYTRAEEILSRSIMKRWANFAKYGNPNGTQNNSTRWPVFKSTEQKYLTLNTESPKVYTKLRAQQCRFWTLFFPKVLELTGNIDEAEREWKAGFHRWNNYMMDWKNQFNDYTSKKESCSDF
Description: Inhibition of equine serum BuChE after 5 mins by Ellman's method

[3] = target: Cholinesterase (Equus caballus) (UniProt P81908); test: Inhibition of equine serum BuChE at 10 uM after 5 mins by Ellman's method
Chain of Cholinesterase (Equus caballus) (P81908 whole entry): as above

[4] = Cytotoxicity against human SH-SY5Y cells assessed as cell viability at 0.1 to 10 uM after 48 hrs by MTS assay; type: cell-based
[5] = target: Amyloid-beta precursor protein (Homo sapiens) (UniProt P05067); test: Neuroprotective activity in human SH-SY5Y cells assessed as inhibition amyloid beta (1 to 42)-induced cytotoxicity at 3 uM after 48 hrs; type: functional, cell-based; set-up: scale not given: the % may be the effect or the level left
Chain of Amyloid-beta precursor protein (Homo sapiens) (P05067 whole entry): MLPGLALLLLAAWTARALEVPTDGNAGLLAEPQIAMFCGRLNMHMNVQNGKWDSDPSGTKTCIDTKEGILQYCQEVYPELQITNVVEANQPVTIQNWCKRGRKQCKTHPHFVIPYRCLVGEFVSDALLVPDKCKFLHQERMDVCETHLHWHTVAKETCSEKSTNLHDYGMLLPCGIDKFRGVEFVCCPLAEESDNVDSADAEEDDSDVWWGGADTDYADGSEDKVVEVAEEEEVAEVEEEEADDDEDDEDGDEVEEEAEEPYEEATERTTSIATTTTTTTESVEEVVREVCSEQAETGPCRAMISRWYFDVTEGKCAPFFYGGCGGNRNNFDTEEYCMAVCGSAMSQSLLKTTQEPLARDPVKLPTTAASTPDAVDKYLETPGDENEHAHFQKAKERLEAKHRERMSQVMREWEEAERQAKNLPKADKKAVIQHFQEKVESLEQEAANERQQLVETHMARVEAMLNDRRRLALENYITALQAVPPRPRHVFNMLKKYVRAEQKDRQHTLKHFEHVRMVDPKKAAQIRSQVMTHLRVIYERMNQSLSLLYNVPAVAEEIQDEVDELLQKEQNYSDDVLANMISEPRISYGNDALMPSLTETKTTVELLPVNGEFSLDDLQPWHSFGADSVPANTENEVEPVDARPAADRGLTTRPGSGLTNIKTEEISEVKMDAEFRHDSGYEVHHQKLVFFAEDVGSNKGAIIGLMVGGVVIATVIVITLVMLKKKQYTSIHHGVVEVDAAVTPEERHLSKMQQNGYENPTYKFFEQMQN

[6] = target: Amyloid-beta precursor protein (Homo sapiens) (UniProt P05067); test: Neuroprotective activity in human SH-SY5Y cells assessed as inhibition amyloid beta (1 to 42)-induced cytotoxicity at 10 uM after 48 hrs; type: functional, cell-based
[7] = target: Amyloid-beta precursor protein (Homo sapiens) (UniProt P05067); test: Neuroprotective activity in human SH-SY5Y cells assessed as inhibition amyloid beta (1 to 42)-induced cytotoxicity at 1 uM after 48 hrs; type: functional, cell-based; set-up: scale not given: the % may be the effect or the level left
[8] = target: Amyloid-beta precursor protein (Homo sapiens) (UniProt P05067); test: Inhibition of human recombinant amyloid beta (1 to 42) self-induced aggregation after 24 hrs by thioflavin-T based fluorometric assay
Acetylcholinesterase [9] = target: T1, Acetylcholinesterase; test: Inhibition of human recombinant AChE at 10 uM after 5 mins by Ellman's method
[10] = target: Acetylcholinesterase (Electrophorus electricus) (UniProt O42275); test: Non-competitive inhibition of Electrophorus electricus AChE after 5 mins by Lineweaver-Burk plot analysis
Chain of Acetylcholinesterase (Electrophorus electricus) (O42275 24-633 limits assumed): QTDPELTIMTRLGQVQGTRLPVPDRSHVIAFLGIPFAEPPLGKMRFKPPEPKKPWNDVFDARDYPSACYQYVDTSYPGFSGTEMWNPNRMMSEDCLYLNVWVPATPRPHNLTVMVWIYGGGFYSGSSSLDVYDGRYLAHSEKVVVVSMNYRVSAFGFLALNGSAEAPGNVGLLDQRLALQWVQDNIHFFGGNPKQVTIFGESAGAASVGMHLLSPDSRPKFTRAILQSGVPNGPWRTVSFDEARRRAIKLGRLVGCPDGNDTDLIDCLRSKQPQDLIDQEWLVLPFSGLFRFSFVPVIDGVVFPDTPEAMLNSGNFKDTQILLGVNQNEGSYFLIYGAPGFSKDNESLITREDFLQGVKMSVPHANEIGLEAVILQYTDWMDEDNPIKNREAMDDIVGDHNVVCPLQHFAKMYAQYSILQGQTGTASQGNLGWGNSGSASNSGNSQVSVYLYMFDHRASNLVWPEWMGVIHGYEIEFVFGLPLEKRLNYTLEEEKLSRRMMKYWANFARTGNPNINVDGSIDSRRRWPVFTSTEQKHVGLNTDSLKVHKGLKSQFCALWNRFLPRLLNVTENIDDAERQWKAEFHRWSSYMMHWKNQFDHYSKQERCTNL

[11] = target: Acetylcholinesterase (Electrophorus electricus) (UniProt O42275); test: Inhibition of Electrophorus electricus AChE at 10 uM after 5 mins by Ellman's method

T1 sequence (P22303 whole entry): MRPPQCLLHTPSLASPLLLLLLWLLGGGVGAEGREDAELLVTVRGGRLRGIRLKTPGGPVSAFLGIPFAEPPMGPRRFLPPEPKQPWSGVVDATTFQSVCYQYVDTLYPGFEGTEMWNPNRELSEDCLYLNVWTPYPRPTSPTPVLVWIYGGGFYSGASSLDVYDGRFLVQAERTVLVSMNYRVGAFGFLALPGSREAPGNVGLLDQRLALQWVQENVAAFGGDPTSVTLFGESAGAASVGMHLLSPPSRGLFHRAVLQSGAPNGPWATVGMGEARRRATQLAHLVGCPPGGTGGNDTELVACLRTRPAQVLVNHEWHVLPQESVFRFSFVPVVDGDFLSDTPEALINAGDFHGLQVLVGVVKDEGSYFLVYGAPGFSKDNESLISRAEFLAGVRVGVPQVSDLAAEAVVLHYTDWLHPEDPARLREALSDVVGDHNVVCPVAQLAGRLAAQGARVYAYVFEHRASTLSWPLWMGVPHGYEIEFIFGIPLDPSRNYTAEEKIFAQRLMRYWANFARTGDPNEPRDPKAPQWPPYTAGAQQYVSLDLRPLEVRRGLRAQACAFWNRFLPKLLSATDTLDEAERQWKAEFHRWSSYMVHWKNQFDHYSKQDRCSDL

| Structure (SMILES) | IC50 (Acetylcholinesterase [1]) [µM] | IC50 (Acetylcholinesterase [2]) [µM] | IC50 (Cholinesterase) [µM] | inhibition [3] [%] | further results |
| --- | --- | --- | --- | --- | --- |
| O=C1c2ccccc2C(=O)N1CCCCCCCNCc1ccccc1 | 0.303 | 0.249 | 1.71 |  |  |
| O=C1c2ccccc2C(=O)N1CCCCCCCCNCc1cccc(Cl)c1 | 0.686 | 0.729 | 1.48 |  |  |
| O=C1c2ccccc2C(=O)N1CCCCCNCc1ccccc1F | 0.168 | 0.041 |  | < 50 |  |
| O=C1c2ccccc2C(=O)N1CCCCCCCNCc1ccc(F)cc1F | 0.381 | 0.171 | 1.87 |  |  |
| O=C1c2ccccc2C(=O)N1CCCCCCNCc1ccccc1F | 0.941 | 0.113 |  | < 50 |  |
| O=C1c2ccccc2C(=O)N1CCCCCCCNCc1ccccc1F | 0.329 | 0.119 | 2.38 |  |  |
| O=C1c2ccccc2C(=O)N1CCCCCCCNCc1ccc(F)cc1 | 0.437 | 0.361 | 1.58 |  |  |
| O=C1c2ccccc2C(=O)N1CCCCCCNCc1ccc(F)cc1F | 1.6 | 0.229 | 8.09 |  | Activity [4]: Non-toxic; Activity [5]: 66.5%; Activity [6]: inactive; Activity [7]: 80.3% |
| O=C1c2ccccc2C(=O)N1CCCCCNCc1ccc(F)cc1 | 0.268 | 0.219 |  | < 50 | Activity [4]: Non-toxic; Activity [5]: 76.2%; Activity [6]: inactive; Activity [7]: 84.5%; inhibition [8]: Dose-dependent effect |
| O=C1c2ccccc2C(=O)N1CCCCCNCc1ccccc1 | 0.202 | 0.078 |  | < 50 |  |
| O=C1c2ccccc2C(=O)N1CCCCNCc1ccc(F)cc1F |  | 8.18 |  | < 50 | inhibition (Acetylcholinesterase [9]): < 50% |
| O=C1c2ccccc2C(=O)N1CCCCCCNCc1ccc(F)cc1 | 3.17 | 0.694 | 9.2 |  |  |
| O=C1c2ccccc2C(=O)N1CCCCCCNCc1ccccc1 | 2.1 | 0.216 |  | < 50 |  |
| O=C1c2ccccc2C(=O)N1CCCCCCCCNCc1ccccc1F | 0.545 | 0.438 | 2.09 |  |  |
| O=C1c2ccccc2C(=O)N1CCCCCCCNCc1cccc(Cl)c1 | 0.651 | 0.502 | 2.63 |  |  |
| O=C1c2ccccc2C(=O)N1CCCCCNCc1ccc(F)cc1F | 0.258 | 0.1 |  | < 50 | inhibition [10]: Active |
| O=C1c2ccccc2C(=O)N1CCCCNCc1ccccc1 |  | 5.28 |  | < 50 | inhibition (Acetylcholinesterase [9]): < 50% |
| O=C1c2ccccc2C(=O)N1CCCCNCc1cccc(Cl)c1 |  | 1.97 |  | < 50 | inhibition (Acetylcholinesterase [9]): < 50% |
| O=C1c2ccccc2C(=O)N1CCCCNCc1ccccc1F |  | 2.03 |  | < 50 | inhibition (Acetylcholinesterase [9]): < 50% |
| O=C1c2ccccc2C(=O)N1CCCCCNCc1cccc(Cl)c1 | 0.16 | 0.034 |  | < 50 | inhibition [10]: Active |
| O=C1c2ccccc2C(=O)N1CCCCCCCCNCc1ccccc1 | 0.496 | 0.773 | 1.23 |  | inhibition [10]: Active |
| O=C1c2ccccc2C(=O)N1CCCCNCc1ccc(F)cc1 |  |  |  | < 50 | inhibition (Acetylcholinesterase [9]): < 50%; inhibition [11]: < 50% |
| O=C1c2ccccc2C(=O)N1CCCCCCCCNCc1ccc(F)cc1F | 0.578 | 0.601 | 1.06 |  |  |
| O=C1c2ccccc2C(=O)N1CCCCCCNCc1cccc(Cl)c1 | 2.01 | 0.18 | 4.6 |  |  |
| O=C1c2ccccc2C(=O)N1CCCCCCCCNCc1ccc(F)cc1 |  | 2.23 | 1.69 |  | inhibition (Acetylcholinesterase [9]): < 50% |
